Reference: patent US4725683A, “Fluorophenoxyphenoxypropionates and derivatives thereof” (The Dow Chemical Company, priority 1985, dated 1988)

Assays:
Assay in all cases: Selective postemergence, track sprayer
Type in all cases: in vivo
Annual Rye = test system: Annual Rye
Description: (§1) Representative compositions of the present invention were evaluated for the postemergence control of species of plants listed in Table A. In these evaluations, pots of the plant species listed in Table A, grown to a height of about 10 cms, were used. Aqueous spray compositions, containing various amounts of 2-[4-(2-fluoro-4-trifluoromethylphenoxy)-phenoxy]propionic acid methy ester, i.e., 125 ppm, 62.5 ppm, 31.25 ppm, 15.6 ppm, 7.8 ppm and 3.9 ppm, respectively, were applied to separate pots. The spray compositions were made by mixing the active ingredient in acetone to 1/2 the final volume, i.e., twice the final concentration. An equal amount of water was added to the active ingredient/acetone mixture wherein the water contained 0.1 percent by weight of TWEEN® 200 surfactant. The application to the plants was made to the point of run-off and was carried out with conventional spraying equipment. Other pots were sprayed with similar compositions containing no toxicant to serve as controls. Thereafter, the pots were maintained under conditions conducive for plant growth. Two weeks after treatment, the pots were examined for plant growth and evaluated on a scale of 0 to 100 where 0 represents no effect and 100 represents complete kill. The results of the examination of the treated pots are set forth below in Table A.
(§2) To further define the selective postemergence herbicidal characteristics of compounds of the present invention, chemicals were applied to additional species of grasses as listed in Table F. Chemicals evaluated were 2-[4-(4-bromo-2-fluorophenoxy)phenoxy]propionic acid methyl ester and its R isomer. Treatment conditions were similar to those described in Example A except that chemicals were delivered through a track sprayer set to deliver the appropriate dosages in 280.6 L/hectare of water containing 0.1% Tween-20 surfactant.

Barley = test system: Barley
Description: as §1, §2

Barnyardgrass = test system: Barnyardgrass
Description: as §1, §2

Blackgrass = test system: Blackgrass
Description: as §1, §2

Broadleaf Signalgrass = test system: Broadleaf Signalgrass
Description: as §1, §2

Cheatgrass = test system: Cheatgrass
Description: as §1, §2

Downey Brome = test system: Downey Brome
Description: as §1, §2

Goosegrass = test system: Goosegrass
Description: as §1, §2

Johnsongrass = test system: Johnsongrass
Description: as §1, §2

Orchardgrass = test system: Orchardgrass
Description: as §1, §2

Wild Proso Millet = test system: Wild Proso Millet
Description: as §1, §2

Yellow Foxtail = test system: Yellow Foxtail
Description: as §1, §2

COC(=O)C(C)Oc1ccc(Oc2ccc(Br)cc2F)cc1 (racemic) [Example 4-Bromo-, 2-[4-(4-bromo-2-fluorophenoxy)phenoxy]propionic acid methyl ester]
Percent Control (Annual Rye; 0.0011 kgs/hectare): 0%
Percent Control (Annual Rye; 0.0023 kgs/hectare): 0%
Percent Control (Annual Rye; 0.0045 kgs/hectare): 0%
Percent Control (Annual Rye; 0.009 kgs/hectare): 20%
Percent Control (Annual Rye; 0.035 kgs/hectare): 40%
Percent Control (Annual Rye; 0.07 kgs/hectare): 100%
Percent Control (Annual Rye; 0.14 kgs/hectare): 100%
Percent Control (Annual Rye; 0.28 kgs/hectare): 100%
Percent Control (Annual Rye; 0.56 kgs/hectare): 100%
Percent Control (Barley; 0.0011 kgs/hectare): 0%
Percent Control (Barley; 0.0023 kgs/hectare): 0%
Percent Control (Barley; 0.0045 kgs/hectare): 0%
Percent Control (Barley; 0.009 kgs/hectare): 0%
Percent Control (Barley; 0.018 kgs/hectare): 0%
Percent Control (Barley; 0.035 kgs/hectare): 0%
Percent Control (Barley; 0.07 kgs/hectare): 0%
Percent Control (Barley; 0.14 kgs/hectare): 10%
Percent Control (Barley; 0.28 kgs/hectare): 20%
Percent Control (Barley; 0.56 kgs/hectare): 50%
Percent Control (Barnyardgrass; 0.0011 kgs/hectare): 40%
Percent Control (Barnyardgrass; 0.0023 kgs/hectare): 70%
Percent Control (Barnyardgrass; 0.0045 kgs/hectare): 100%
Percent Control (Barnyardgrass; 0.009 kgs/hectare): 100%
Percent Control (Barnyardgrass; 0.035 kgs/hectare): 100%
Percent Control (Barnyardgrass; 0.07 kgs/hectare): 100%
Percent Control (Barnyardgrass; 0.14 kgs/hectare): 100%
Percent Control (Barnyardgrass; 0.28 kgs/hectare): 100%
Percent Control (Barnyardgrass; 0.56 kgs/hectare): 100%
Percent Control (Blackgrass; 0.0011 kgs/hectare): 30%
Percent Control (Blackgrass; 0.0023 kgs/hectare): 50%
Percent Control (Blackgrass; 0.0045 kgs/hectare): 50%
Percent Control (Blackgrass; 0.009 kgs/hectare): 100%
Percent Control (Blackgrass; 0.035 kgs/hectare): 100%
Percent Control (Blackgrass; 0.07 kgs/hectare): 100%
Percent Control (Blackgrass; 0.14 kgs/hectare): 100%
Percent Control (Blackgrass; 0.28 kgs/hectare): 100%
Percent Control (Blackgrass; 0.56 kgs/hectare): 100%
Percent Control (Broadleaf Signalgrass; 0.0011 kgs/hectare): 70%
Percent Control (Broadleaf Signalgrass; 0.0023 kgs/hectare): 90%
Percent Control (Broadleaf Signalgrass; 0.0045 kgs/hectare): 80%
Percent Control (Broadleaf Signalgrass; 0.009 kgs/hectare): 100%
Percent Control (Broadleaf Signalgrass; 0.035 kgs/hectare): 100%
Percent Control (Broadleaf Signalgrass; 0.07 kgs/hectare): 100%
Percent Control (Broadleaf Signalgrass; 0.14 kgs/hectare): 100%
Percent Control (Broadleaf Signalgrass; 0.28 kgs/hectare): 100%
Percent Control (Broadleaf Signalgrass; 0.56 kgs/hectare): 100%
Percent Control (Cheatgrass; 0.0011 kgs/hectare): 0%
Percent Control (Cheatgrass; 0.0023 kgs/hectare): 0%
Percent Control (Cheatgrass; 0.0045 kgs/hectare): 0%
Percent Control (Cheatgrass; 0.009 kgs/hectare): 0%
Percent Control (Cheatgrass; 0.018 kgs/hectare): 0%
Percent Control (Cheatgrass; 0.035 kgs/hectare): 0%
Percent Control (Cheatgrass; 0.07 kgs/hectare): 0%
Percent Control (Cheatgrass; 0.14 kgs/hectare): 0%
Percent Control (Cheatgrass; 0.28 kgs/hectare): 0%
Percent Control (Cheatgrass; 0.56 kgs/hectare): 20%
Percent Control (Downey Brome; 0.0011 kgs/hectare): 0%
Percent Control (Downey Brome; 0.0023 kgs/hectare): 0%
Percent Control (Downey Brome; 0.0045 kgs/hectare): 0%
Percent Control (Downey Brome; 0.009 kgs/hectare): 0%
Percent Control (Downey Brome; 0.018 kgs/hectare): 0%
Percent Control (Downey Brome; 0.035 kgs/hectare): 0%
Percent Control (Downey Brome; 0.07 kgs/hectare): 0%
Percent Control (Downey Brome; 0.14 kgs/hectare): 0%
Percent Control (Downey Brome; 0.28 kgs/hectare): 0%
Percent Control (Downey Brome; 0.56 kgs/hectare): 0%
Percent Control (Goosegrass; 0.0011 kgs/hectare): 0%
Percent Control (Goosegrass; 0.0023 kgs/hectare): 0%
Percent Control (Goosegrass; 0.0045 kgs/hectare): 30%
Percent Control (Goosegrass; 0.009 kgs/hectare): 20%
Percent Control (Goosegrass; 0.035 kgs/hectare): 80%
Percent Control (Goosegrass; 0.07 kgs/hectare): 100%
Percent Control (Goosegrass; 0.14 kgs/hectare): 100%
Percent Control (Goosegrass; 0.28 kgs/hectare): 100%
Percent Control (Goosegrass; 0.56 kgs/hectare): 100%
Percent Control (Johnsongrass; 0.0011 kgs/hectare): 0%
Percent Control (Johnsongrass; 0.0023 kgs/hectare): 0%
Percent Control (Johnsongrass; 0.0045 kgs/hectare): 0%
Percent Control (Johnsongrass; 0.009 kgs/hectare): 0%
Percent Control (Johnsongrass; 0.035 kgs/hectare): 0%
Percent Control (Johnsongrass; 0.07 kgs/hectare): 0%
Percent Control (Johnsongrass; 0.14 kgs/hectare): 20%
Percent Control (Johnsongrass; 0.28 kgs/hectare): 30%
Percent Control (Johnsongrass; 0.56 kgs/hectare): 80%
Percent Control (Orchardgrass; 0.0011 kgs/hectare): 0%
Percent Control (Orchardgrass; 0.0023 kgs/hectare): 0%
Percent Control (Orchardgrass; 0.0045 kgs/hectare): 0%
Percent Control (Orchardgrass; 0.009 kgs/hectare): 0%
Percent Control (Orchardgrass; 0.035 kgs/hectare): 0%
Percent Control (Orchardgrass; 0.07 kgs/hectare): 80%
Percent Control (Orchardgrass; 0.14 kgs/hectare): 90%
Percent Control (Orchardgrass; 0.28 kgs/hectare): 90%
Percent Control (Orchardgrass; 0.56 kgs/hectare): 90%
Percent Control (Wild Proso Millet; 0.0011 kgs/hectare): 20%
Percent Control (Wild Proso Millet; 0.0023 kgs/hectare): 20%
Percent Control (Wild Proso Millet; 0.0045 kgs/hectare): 70%
Percent Control (Wild Proso Millet; 0.009 kgs/hectare): 80%
Percent Control (Wild Proso Millet; 0.035 kgs/hectare): 100%
Percent Control (Wild Proso Millet; 0.07 kgs/hectare): 100%
Percent Control (Wild Proso Millet; 0.14 kgs/hectare): 100%
Percent Control (Wild Proso Millet; 0.28 kgs/hectare): 100%
Percent Control (Wild Proso Millet; 0.56 kgs/hectare): 100%
Percent Control (Yellow Foxtail; 0.0011 kgs/hectare): 0%
Percent Control (Yellow Foxtail; 0.0023 kgs/hectare): 0%
Percent Control (Yellow Foxtail; 0.0045 kgs/hectare): 0%
Percent Control (Yellow Foxtail; 0.009 kgs/hectare): 40%
Percent Control (Yellow Foxtail; 0.035 kgs/hectare): 80%
Percent Control (Yellow Foxtail; 0.07 kgs/hectare): 100%
Percent Control (Yellow Foxtail; 0.14 kgs/hectare): 100%
Percent Control (Yellow Foxtail; 0.28 kgs/hectare): 100%
Percent Control (Yellow Foxtail; 0.56 kgs/hectare): 100%
